Our source for the IC50 values is patent publication US10723705B2, “Heterocyclic compounds and uses thereof” (Incyte Corporation, priority 2015, dated 2020).

Read-outs that look alike come from different tables or passages of the source.

The assay deals with Human recombinant Histone Deacetylase 8 (HDAC8) (Homo sapiens (Human), UniProt Q9BY41). Put plainly: HDAC8 Enzymatic Assay (HDAC-Glo I/II luminescence). It is filed as biochemical. As to the method: HDAC-Glo™ I/II Assay Kit was purchased from Promega Corporation (Madison, Wis.), including the following components: HDAC-Glo I/II Buffer (25 mM Tris buffer, pH 8.0, supplemented with 137 mM: NaCl, 2.7 mM KCl, 1% v/v Triton X-100 and 1 mM: MgCl2), luminogenic substrates Boc-GAK(Ac)-aminoluciferin (HDAC-Glo I/II substrate), proprietary developer reagent (containing trypsin). Human recombinant Histone Deacetylase 8 (HDAC8) was purchased from Enzo Life Sciences (Plymouth Meeting, Pa.).
The HDAC8 reaction was performed at room temperature in white 384-well polystyrene, flat-bottom microtiter plate (Greiner Bio-one, Monroe, N.C.) in a final volume of 20 μL. Test compounds were first diluted serially in DMSO and 100 nL were transferred to the plate wells by Echo 550 (Labcyte, Sunnyvale, Calif.) before the addition of other reaction components. The final concentration of DMSO in the assay was 0.5%. The HDAC-Glo I/II assay reagent was prepared by rehydration of lyophilized HDAC-Glo I/II substrate in 10 mL. HDAC-Glo I/II assay buffer followed with the addition of 10 μL of developer reagent. 10 uL of 3 nM HDAC8 in the HDAC-Glo I/II assay buffer were first dispensed into the microliter plate containing the compounds and incubated at room temperature for 30 min. The reactions were initiated with the addition of 10 uL HDAC-Glo I/II assay reagent with Multidrop (Thermo, Waltham, Mass.). The final concentration of HDAC8 and HDAC-Glo I/II substrate in the reaction were 1.5 nM and 50 μM, respectively. The assay plate was mixed for 1 min by orbital shaking (500 rpm) and centrifuged for 1 min at 1500 rpm. After 15 min at room temperature, luminescence signals were measured on TopCount (Perkin Elmer). Wells with no compound served as the positive controls and wells containing no HDAC8 were used as negative controls. IC50 determination was performed by fitting the curve of percentage control activity versus the log of the compound concentration using the GraphPad Prism 6.0 software.

The mark [1] stands for this setting: class symbols, Table 14, read-out: HDAC8 IC50.

Sequence of Human recombinant Histone Deacetylase 8 (HDAC8) (Q9BY41 whole entry): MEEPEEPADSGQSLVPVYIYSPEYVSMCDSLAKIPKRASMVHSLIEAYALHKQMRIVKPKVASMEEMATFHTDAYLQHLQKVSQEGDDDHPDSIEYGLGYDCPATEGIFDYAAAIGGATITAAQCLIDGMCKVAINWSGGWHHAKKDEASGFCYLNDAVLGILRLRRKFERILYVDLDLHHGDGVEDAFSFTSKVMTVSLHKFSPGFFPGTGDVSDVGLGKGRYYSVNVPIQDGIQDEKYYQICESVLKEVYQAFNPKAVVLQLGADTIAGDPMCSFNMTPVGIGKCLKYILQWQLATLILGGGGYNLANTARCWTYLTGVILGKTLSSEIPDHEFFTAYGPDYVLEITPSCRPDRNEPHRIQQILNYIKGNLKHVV

For orientation: IC50 means the concentration needed to halve the response being measured. For the molecule `CN(C)C(=O)c1ccc(-c2cccc3c(C#CC4CC4)n(C(Cc4ccccc4)C(=O)NO)nc23)cc1` (stereo not drawn) [Compound I-0139, 4-(3-(cyclopropylethynyl)-2-(1-(hydroxyamino)-1-oxo-3-phenylpropan-2-yl)-2H-indazol-7-yl)-N,N-dimethylbenzamide], the IC50 under setting [1] was not above 50 nM.

Regarding `CN(C)C(=O)c1cccc(-c2cccc3c(C#CC4CC4)n(C(Cc4ccccc4)C(=O)NO)nc23)c1` (stereo not drawn) [Compound I-0159, 3-(3-(cyclopropylethynyl)-2-(1-(hydroxyamino)-1-oxo-3-phenylpropan-2-yl)-2H-indazol-7-yl)-N,N-dimethylbenzamide], the IC50 under setting [1] was not above 50 nM.

Take `Cn1nccc1-c1nccc2cn(C(Cc3ccccc3)C(=O)NO)nc12` (stereo not drawn) [Compound I-0199, N-hydroxy-2-(7-(1-methyl-1H-pyrazol-5-yl)-2H-pyrazolo[3,4-c]pyridin-2-yl)-3-phenylpropanamide]: under setting [1], the IC50 is not above 50 nM.

In the case of `O=C(NO)C(Cc1ccccc1)n1ncc2c(Cl)nccc21` (stereo not drawn) [Compound I-0055, 2-(4-chloro-1H-pyrazolo[4,3-c]pyridin-1-yl)-N-hydroxy-3-phenylpropanamide], under setting [1], the IC50 is 200 to 500 nM.

As for `Cn1nccc1-c1ccc2c(cnn2C(Cc2ccccc2)C(=O)NO)c1` (stereo not drawn) [Compound I-0010, N-hydroxy-2-(5-(1-methyl-1H-pyrazol-5-yl)-1H-indazol-1-yl)-3-phenylpropanamide], the IC50 under setting [1] fell in the range of 50 to 200 nM.

For the molecule `COc1ncc(-c2ccc3nn(C(Cc4ccccc4)C(=O)NO)c(C#CC4CC4)c3c2)cn1` (stereo not drawn) [Compound I-0031, 2-(3-(cyclopropylethynyl)-5-(2-methoxypyrimidin-5-yl)-2H-indazol-2-yl)-N-hydroxy-3-phenylpropanamide], the IC50 under setting [1] was not above 50 nM.

Regarding `O=C(NO)C(Cc1ccccc1)n1cc2cccc(CN3CCOCC3)c2n1` (stereo not drawn) [Compound I-0183, N-hydroxy-2-(7-(morpholinomethyl)-2H-indazol-2-yl)-3-phenylpropanamide], the IC50 under setting [1] fell in the range of 200 to 500 nM.

As for `Cn1nccc1-c1ccc2cn(C(Cc3ccccc3)C(=O)NO)nc2c1` (stereo not drawn) [Compound I-0047, N-hydroxy-2-(6-(1-methyl-1H-pyrazol-5-yl)-2H-indazol-2-yl)-3-phenylpropanamide], the IC50 under setting [1] lay within 200 to 500 nM.

With `O=C(NC1CCOCC1)c1cccc2cn(C(Cc3ccccc3)C(=O)NO)nc12` (stereo not drawn) [Compound I-0176, 2-(1-(hydroxyamino)-1-oxo-3-phenylpropan-2-yl)-N-(tetrahydro-2H-pyran-4-yl)-2H-indazole-7-carboxamide], the IC50 under setting [1] is 50 to 200 nM.

On to `O=C(NO)C(Cc1ccccc1)n1cc2ccc(Br)cc2n1` (stereo not drawn) [Compound I-0004, 2-(6-bromo-2H-indazol-2-yl)-N-hydroxy-3-phenylpropanamide], for which the IC50 under setting [1] fell in the range of 200 to 500 nM.

For `N#Cc1ccc(-c2cnc3c(cnn3C(Cc3ccccc3)C(=O)NO)c2)cc1` (stereo not drawn) [Compound I-0117, 2-(5-(4-cyanophenyl)-1H-pyrazolo[3,4-b]pyridin-1-yl)-N-hydroxy-3-phenylpropanamide], under setting [1], the IC50 is more than 500 nM.

Regarding `O=C(NO)C(Cc1ccccc1)n1cc2ccccc2n1` (stereo not drawn) [Compound I-0002, N-hydroxy-2-(2H-indazol-2-yl)-3-phenylpropanamide], the IC50 under setting [1] lay in the range of 200 to 500 nM.

Consider `O=C(NO)C(Cc1ccccc1)n1nc(I)c2ccnc(Cl)c21` (stereo not drawn) [Compound I-0124, 2-(7-chloro-3-iodo-1H-pyrazolo[3,4-c]pyridin-1-yl)-N-hydroxy-3-phenylpropanamide], for which, under setting [1], the IC50 lay in the range of 50 to 200 nM.

For the molecule `CC1CCN(c2cccc3nn(C(Cc4ccccc4)C(=O)NO)cc23)CC1` (stereo not drawn) [Compound I-0145, N-hydroxy-2-(4-(4-methylpiperidin-1-yl)-2H-indazol-2-yl)-phenylpropanamide], the IC50 (HDAC8, read-out: IC50) was found to be 717 nM.

For `NC(=O)c1ccc(-c2cccc3c2cnn3C(Cc2ccccc2)C(=O)NO)cc1` (stereo not drawn) [Compound I-0080, 4-(1-(1-(hydroxyamino)-1-oxo-3-phenylpropan-2-yl)-1H-indazol-4-yl)benzamide], the IC50 under setting [1] is more than 500 nM.

As to `COC1CCN(Cc2cccc3cn(C(Cc4ccccc4)C(=O)NO)nc23)CC1` (stereo not drawn) [Compound I-0184, N-hydroxy-2-(7-((4-methoxypiperidin-1-yl)methyl)-2H-indazol-2-yl)-3-phenylpropanamide], the IC50 under setting [1] is 200 to 500 nM.

Regarding `Cn1nccc1-c1cc2cnn(C(Cc3ccccc3)C(=O)NO)c2cn1` (stereo not drawn) [Compound I-0090, N-hydroxy-2-(5-(1-methyl-1H-pyrazol-5-yl)-1H-pyrazolo[3,4-c]pyridin-1-yl)-3-phenylpropanamide], the IC50 under setting [1] was in the range of 200 to 500 nM.

Take `COc1ncc(-c2ccc3nn(C(Cc4ccccc4)C(=O)NO)cc3c2)cn1` (stereo not drawn) [Compound I-0035, N-hydroxy-2-(5-(2-methoxypyrimidin-5-yl)-2H-indazol-2-yl)-3-phenylpropanamide]: the IC50 under setting [1] was 200 to 500 nM.

As for `O=C(NO)C(Cc1ccccc1)n1cc2c(-c3ccccc3)cccc2n1` (stereo not drawn) [Compound I-0060, N-hydroxy-3-phenyl-2-(4-phenyl-2H-indazol-2-yl)propanamide], the IC50 under setting [1] is more than 500 nM.

Consider `COc1ccc(-c2cc3cnn(C(Cc4ccccc4)C(=O)NO)c3cn2)cn1` (stereo not drawn) [Compound I-0096, N-hydroxy-2-(5-(6-methoxypyridin-3-yl)-1H-pyrazolo[3,4-c]pyridin-1-yl)-3-phenylpropanamide], for which the IC50 under setting [1] is more than 500 nM.

Take `O=C(NO)C(Cc1ccccc1)n1cc2cc(Cl)ccc2n1` (stereo not drawn) [Compound I-0003, 2-(5-Chloro-2H-indazol-2-yl)-N-hydroxy-3-phenylpropanamide]: the IC50 runs as follows: (HDAC8, read-out: IC50) 338 nM; under setting [1], 200 to 500 nM.

As to `O=C(NO)C(Cc1ccccc1)c1cnc2c(-c3cncnc3)cccn12` (stereo not drawn) [Compound I-0164, N-hydroxy-3-phenyl-2-(8-pyrimidin-5-ylimidazo[1,2-a]pyridin-3-yl)propanamide], under setting [1], the IC50 is more than 500 nM.

`O=C(NO)C(Cc1ccccc1)n1nc(C#CC2CC2)c2ccnc(Cl)c21` (stereo not drawn) [Compound I-0126, 2-[7-Chloro-3-(cyclopropylethynyl)-1H-pyrazolo[3,4-c]pyridin-1-yl]-N-hydroxy-3-phenylpropanamide]: the concentration for half-maximal inhibition (IC50) reads like this: (HDAC8, read-out: IC50) 101 nM; under setting [1], 50 to 200 nM.

For the molecule `O=C(NO)C(Cc1ccccc1)n1ncc2cc(-c3cccnc3)ccc21` (stereo not drawn) [Compound I-0104, N-hydroxy-3-phenyl-2-(5-(pyridin-3-yl)-1H-indazol-1-yl)propanamide], the IC50 under setting [1] is 50 to 200 nM.

Take `O=C(NO)C(Cc1ccccc1)n1ncc2cc(-c3cncnc3)ccc21` (stereo not drawn) [Compound I-0012, N-hydroxy-3-phenyl-2-(5-(pyrimidin-5-yl)-1H-indazol-1-yl)propanamide]: the IC50 under setting [1] is 50 to 200 nM.

As to `O=C(NO)C(Cc1ccccc1)n1cc2ccc(C(F)(F)F)cc2n1` (stereo not drawn) [Compound I-0038, N-hydroxy-3-phenyl-2-(6-(trifluoromethyl)-2H-indazol-2-yl)propanamide], the IC50 under setting [1] is more than 500 nM.

Regarding `O=C(NO)C(Cc1ccccc1)n1ncc2ccc(-c3cncnc3)cc21` (stereo not drawn) [Compound I-0023, N-hydroxy-3-phenyl-2-(6-(pyrimidin-5-yl)-1H-indazol-1-yl)propanamide], under setting [1], the IC50 was more than 500 nM.

In the case of `O=C(NO)C(Cc1ccccc1)n1cc2c(Cl)nccc2n1` (stereo not drawn) [Compound I-0056, 2-(4-chloro-2H-pyrazolo[4,3-c]pyridin-2-yl)-N-hydroxy-3-phenylpropanamide], under setting [1], the IC50 was more than 500 nM.
